Like-named read-outs stand apart in the source and are kept apart here.
Key:
[1] = molecular target: T1, delta opioid receptor (CHO-hδ cell membranes) (Homo sapiens, UniProt P41143); experiment: Delta Opioid Receptor Functional Assay: [35S]GTPγS Binding in CHO-hδ Cell Membranes, Version 1; type: biochemical; conditions: read-out: DOR GTP-binding Assay_v1 EC50
T1 construct: purchased Receptor Biology, Inc. (Baltimore, Md.); host or cells: CHO cells (recombinant expression)
Method in brief: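 CHO-hδ membranes (10 μg/ml) coupled to SPA beads, incubated with 0.5 nM [35S]GTPγS and 50 μM GDP in HEPES pH 7.6, MgCl2, NaCl, DTT, EDTA buffer with increasing agonist. Nonspecific binding with 10 μM unlabeled GTPγS; response as % of basal, EC50 by curve fit.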

[2] = molecular target: T2, mu opioid receptor (CHO-hMOR cell membranes) (Homo sapiens, UniProt P35372); experiment: Mu Opioid Receptor Functional Assay: [35S]GTPγS Binding in CHO-hMOR Cell Membranes, Versions 1 and 2; type: biochemical; conditions: for MOR GTP binding assay_v1 (% I): version 1, % inhibition of agonist-stimulated GTPγS binding; for MOR GTP assay_v1 % of Basal: version 1, basal binding = 100%
T2 construct: purchased Receptor Biology, Inc. (Baltimore, Md.); host or cells: CHO cells (recombinant expression)
Method in brief: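 Agonist-stimulated [35S]GTPγS (0.5 nM) binding measured by SPA in human MOR CHO membranes, buffer pH 7.6 with 100 mM NaCl, 5 mM MgCl2. Antagonist mode: % inhibition of stimulation by 1 μM SNC80; agonist mode: EC50 fitted. Basal binding without agonist, non-specific with 10 μM cold GTPγS.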

[3] = tested on: novel environment-stressed mice; experiment: In Vivo Assay-Stress-Induced Fecal Output (Fecal Output for 1 hr); set-up: species or system mouse; conditions: for Fecal Output (# pellets) cpd: novel environment-stressed mice; for Fecal Output (# pellets) cpd / response vs control in vivo at 10 mg/kg / response vs control in vivo at 30 mg/kg: 1 hr; for response vs control in vivo at 10 mg/kg / response vs control in vivo at 30 mg/kg: Mus musculus, po, 1 h
Method in brief: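 Adult male Crl:CD-1(ICR) mice (˜30-35 g; at least 10 per dose group) were split into acclimated non-stressed controls, held individually for 16-18 hr in wire-mesh-bottom cages, and non-acclimated stressed groups. Mice were dosed intragastrically with vehicle or test compound in 0.5% methylcellulose, housed individually in novel cages over absorbent cardboard, and fecal pellets per mouse were counted hourly.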

[4] = 10 mg/kg oral, relative to acclimated control, read-out: Fecal Output cpd % control
[5] = 10 mg/kg oral, relative to novel environment stress (NES) vehicle group, read-out: Fecal Output cpd % NES
[6] = 30 mg/kg oral, relative to acclimated control, read-out: Fecal Output cpd % control
[7] = 30 mg/kg oral, relative to novel environment stress (NES) vehicle group, read-out: Fecal Output cpd % NES

T1 sequence (P41143 whole entry): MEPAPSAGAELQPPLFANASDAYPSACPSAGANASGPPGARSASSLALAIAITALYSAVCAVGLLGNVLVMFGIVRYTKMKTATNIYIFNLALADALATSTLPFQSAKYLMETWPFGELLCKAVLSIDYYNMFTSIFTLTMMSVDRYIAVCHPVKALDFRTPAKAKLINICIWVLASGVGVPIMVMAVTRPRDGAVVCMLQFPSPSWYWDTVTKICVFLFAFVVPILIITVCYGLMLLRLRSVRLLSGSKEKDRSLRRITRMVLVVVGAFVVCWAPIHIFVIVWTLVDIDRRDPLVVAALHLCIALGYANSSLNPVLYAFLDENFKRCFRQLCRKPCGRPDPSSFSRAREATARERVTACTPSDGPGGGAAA
T2 sequence (P35372 whole entry): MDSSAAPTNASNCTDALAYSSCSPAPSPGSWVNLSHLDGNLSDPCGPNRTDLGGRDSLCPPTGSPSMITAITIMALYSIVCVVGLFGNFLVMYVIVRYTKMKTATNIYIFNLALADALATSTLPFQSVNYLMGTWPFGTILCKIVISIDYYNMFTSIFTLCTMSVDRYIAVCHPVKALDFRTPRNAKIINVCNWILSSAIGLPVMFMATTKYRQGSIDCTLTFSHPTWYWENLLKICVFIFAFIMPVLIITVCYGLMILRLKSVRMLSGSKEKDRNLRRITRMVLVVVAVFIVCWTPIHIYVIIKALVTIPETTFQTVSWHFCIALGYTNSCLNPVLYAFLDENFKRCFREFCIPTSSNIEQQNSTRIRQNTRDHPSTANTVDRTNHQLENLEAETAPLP

Compound | EC50 [1] [nM] | MOR GTP binding assay_v1 (% I) [2] [%] | MOR GTP assay_v1 % of Basal [2] [%] | Fecal Output (# pellets) cpd ([3]; 10 mg/kg oral) [pellets] | response vs control in vivo at 10 mg/kg [3, 4] [%] | response vs control in vivo at 10 mg/kg [3, 5] [%] | Fecal Output (# pellets) cpd ([3]; 30 mg/kg oral) [pellets] | response vs control in vivo at 30 mg/kg [3, 6] [%] | response vs control in vivo at 30 mg/kg [3, 7] [%] | # of pellets, Compound (m) 3.0 ([3]; dose 3.0, oral, NES mice, fecal output 1 hr) | Fecal pellet output, Compound (% control) 3.0 ([3]; dose 3.0, oral, NES mice, vs acclimated control) [% control] | Fecal pellet output, Compound (% NES) 3.0 ([3]; dose 3.0, oral, vs vehicle NES group) [% NES] | # of pellets, Compound (m) 10.0 ([3]; dose 10.0, oral, NES mice, fecal output 1 hr) | Fecal pellet output, Compound (% control) 10.0 ([3]; dose 10.0, oral, NES mice, vs acclimated control) [% control] | Fecal pellet output, Compound (% NES) 10.0 ([3]; dose 10.0, oral, vs vehicle NES group) [% NES] | # of pellets, Compound (m) 30.0 ([3]; dose 30.0, oral, NES mice, fecal output 1 hr) | Fecal pellet output, Compound (% control) 30.0 ([3]; dose 30.0, oral, NES mice, vs acclimated control) [% control] | Fecal pellet output, Compound (% NES) 30 ([3]; dose 30, oral, vs vehicle NES group) [% NES]
Cc1cc(O)cc(C)c1C[C@H](N)C(=O)N(C)[C@H](C)c1nc(-c2ccccc2)c[nH]1 [Cpd 206] | 37 | 1.00 | 446.00 | 8.6 | 226 | 65.6 |  |  |  |  |  |  |  |  |  |  |  | 
Cc1cc(O)cc(C)c1C[C@H](N)C(=O)N(C)Cc1nc(-c2ccccc2)c[nH]1 [Cpd 199] | 217 | 11.00 | 465.00 |  |  | 86.7 |  |  |  |  |  |  |  |  |  |  |  | 
CC(C)N(C(=O)[C@@H](N)Cc1ccc(O)cc1)[C@@H](C)c1nc(-c2ccccc2)c[nH]1 [Cpd 225] | 2190 | 1.00 | 657.00 |  |  |  | 7.3 | 235 | 152 |  |  |  |  |  |  |  |  | 
Cc1cc(C(N)=O)cc(C)c1C[C@H](N)C(=O)N(Cc1ccccc1)[C@@H](C)c1nc(-c2ccccc2)c[nH]1 [Cpd 114] | 35 | 13.20 | 717.59 |  |  |  | 7.8 | 108 | 75.7 | 9.6 | 282.4 | 96 | 7.7 | 226.5 | 77 | 5.4 | 159 | 54
CCN(C(=O)[C@@H](N)Cc1c(C)cc(O)cc1C)[C@@H](C)c1nc(-c2ccccc2)c[nH]1 [Cpd 216] | 16 | 1.00 | 666.00 | 4.9 | 136 | 47.6 |  |  |  |  |  |  |  |  |  |  |  | 
Cc1cc(O)cc(C)c1C[C@H](N)C(=O)N(Cc1nc(-c2ccccc2)c[nH]1)CC1CC1 [Cpd 192] | 76 | 30.00 | 383.00 | 10.5 | 194 | 84 |  |  |  |  |  |  |  |  |  |  |  | 
Cc1cc(O)cc(C)c1C[C@H](N)C(=O)N(C)[C@@H](C)c1nc(Cc2ccccc2)c[nH]1 [Cpd 205] | 32 | 1.00 | 566.00 |  |  |  | 2.3 | 70.7 | 24.6 |  |  |  |  |  |  |  |  | 
Cc1cc(O)cc(C)c1C[C@H](N)C(=O)N(Cc1nc(-c2ccccc2)c[nH]1)C(C)C [Cpd 194] | 189 | 1.00 | 558.00 | 11.8 | 218 | 94.4 |  |  |  |  |  |  |  |  |  |  |  | 
